Key:
[1] = system: MDA-MB-231; test: Cell growth inhibition, CellTiter-Glo Luminescent Cell Viability Assay, MDA-MB-231; assay type: cell-based; conditions: MDA-MB-231 cells, 4 days incubation
Protocol: (§1) Cell growth inhibitory activity of representative Compounds of the Disclosure was determined in various cell lines using CellTiter-Glo® Luminescent Cell Viability Assay. Cells were seeded in 384-well white opaque cell culture plates at a density of 2,000 cells/well with serially diluted compounds and incubated at 37° C. in an atmosphere of 95% air and 5% CO2 for 4 days. Cell viability was determined using the CellTiter-Glo® Luminescent Cell Viability Assay Kit (Promega, Madison, Wis.) according to the manufacture's instruction. Briefly, a volume of CellTiter-Glo® Reagent equal to the volume of cell culture medium was added to each well, and then the plates were incubated at room temperature for 10-20 minutes. The luminescent signal was measured using a Tecan Infinite M1000 multimode microplate reader (Tecan, Morrisville, N.C.). The half maximal inhibitory concentration (IC50) was calculated using the GraphPad Prism 5 software (GraphPad Software, La Jolla, Calif.).

[2] = system: MOLM-13; test: Cell growth inhibition, CellTiter-Glo Luminescent Cell Viability Assay, MOLM-13; assay type: cell-based; conditions: MOLM-13 cells, 4 days incubation
Protocol: as §1

Row | SMILES | IC50 ([1]; Homo sapiens, MDA-MB-231, 96 h) | IC50 ([2]; Homo sapiens, MOLM-13, 96 h) | IC50 [1] | IC50 [2]
1 | Cc1ncsc1-c1ccc([C@H](C)NC(=O)[C@@H]2C[C@@H](O)CN2C(=O)[C@@H](NC(=O)COCCCn2cc(C#Cc3sc4c(c3C)C(c3ccc(Cl)cc3)=N[C@@H](C)c3nnc(C)n3-4)cn2)C(C)(C)C)cc1 [compound 199, (2S,4R)-1-((S)-2-(2-(3-(4-(((S)-4-(4-chlorophenyl)-3,6,9-trimethyl-6H-thieno[3,2-f][1,2,4]triazolo[4,3-a][1,4]diazepin-2-yl)ethynyl)-1H-pyrazol-1-yl)propoxy)acetamido)-3,3-dimethylbutanoyl)-4-hydroxy-N-((S)-1-(4-(4-methylthiazol-5-yl)phenyl)ethyl)pyrrolidine-2-carboxamide] | 6.7 nM | 0.5 ± 0.06 nM | – | –
2 | Cc1c(C#Cc2ccc(CCC#Cc3cccc4c3CN(C3CCC(=O)NC3=O)C4=O)cn2)sc2c1C(c1ccc(Cl)cc1)=NCc1nnc(C)n1-2 (centres unmarked) [compound 181, 3-(4-(4-(6-((4-(4-chlorophenyl)-3,9-dimethyl-6H-thieno[3,2-f][1,2,4]triazolo[4,3-a][1,4]diazepin-2-yl)ethynyl)pyridin-3-yl)but-1-yn-1-yl)-1-oxoisoindolin-2-yl)piperidine-2,6-dione] | 532 nM | > 1000 nM | – | –
3 | Cc1ncsc1-c1ccc([C@H](C)NC(=O)[C@@H]2C[C@@H](O)CN2C(=O)[C@@H](NC(=O)COCCOCCOCCn2cc(C#Cc3sc4c(c3C)C(c3ccc(Cl)cc3)=N[C@@H](C)c3nnc(C)n3-4)cn2)C(C)(C)C)cc1 [compound 200, (2S,4R)-1-((S)-2-(tert-butyl)-14-(4-(((S)-4-(4-chlorophenyl)-3,6,9-trimethyl-6H-thieno[3,2-f][1,2,4]triazolo[4,3-a][1,4]diazepin-2-yl)ethynyl)-1H-pyrazol-1-yl)-4-oxo-6,9,12-trioxa-3-azatetradecanoyl)-4-hydroxy-N-((S)-1-(4-(4-methylthiazol-5-yl)phenyl)ethyl)pyrrolidine-2-carboxamide] | 3.1 nM | 0.34 ± 0.03 nM | – | –
4 | Cc1c(C#Cc2cnn(CCCN3CCC(Nc4cccc5c4CN(C4CCC(=O)NC4=O)C5=O)CC3)c2)sc2c1C(c1ccc(Cl)cc1)=NCc1nnc(C)n1-2 (centres unmarked) [compound 148, 3-(4-((1-(3-(4-((4-(4-chlorophenyl)-3,9-dimethyl-6H-thieno[3,2-f][1,2,4]triazolo[4,3-a][1,4]diazepin-2-yl)ethynyl)-1H-pyrazol-1-yl)propyl)piperidin-4-yl)amino)-1-oxoisoindolin-2-yl)piperidine-2,6-dione] | 0.4 nM | 0.24 nM | – | –
5 | Cc1c(C#Cc2cnn(CCCN3CC(Nc4cccc5c4CN(C4CCC(=O)NC4=O)C5=O)C3)c2)sc2c1C(c1ccc(Cl)cc1)=N[C@@H](C)c1nnc(C)n1-2 (stereo partly drawn) [compound 177, 3-(4-((1-(3-(4-(((S)-4-(4-chlorophenyl)-3,6,9-trimethyl-6H-thieno[3,2-f][1,2,4]triazolo[4,3-a][1,4]diazepin-2-yl)ethynyl)-1H-pyrazol-1-yl)propyl)azetidin-3-yl)amino)-1-oxoisoindolin-2-yl)piperidine-2,6-dione] | – | 0.6 nM | – | –
6 | Cc1c(C#Cc2cnn(CCCCCc3ccc4c(c3)CN(C3CCC(=O)NC3=O)C4=O)c2)sc2c1C(c1ccc(Cl)cc1)=N[C@@H](C)c1nnc(C)n1-2 (stereo partly drawn) [compound 180, 3-(5-(5-(4-(((S)-4-(4-chlorophenyl)-3,6,9-trimethyl-6H-thieno[3,2-f][1,2,4]triazolo[4,3-a][1,4]diazepin-2-yl)ethynyl)-1H-pyrazol-1-yl)pentyl)-1-oxoisoindolin-2-yl)piperidine-2,6-dione] | 0.04 nM | 0.2 nM | – | –
7 | Cc1c(C#Cc2cnn(CCOCCOCCOCC#Cc3cccc4c3CN(C3CCC(=O)NC3=O)C4=O)c2)sc2c1C(c1ccc(Cl)cc1)=N[C@@H](C)c1nnc(C)n1-2 (some centres unmarked) [compound 196] | 0.4 nM | 0.2 nM | – | –
8 | Cc1c(C#Cc2cnn(CCn3cnc(COc4cccc5c4CN(C4CCC(=O)NC4=O)C5=O)c3)c2)sc2c1C(c1ccc(Cl)cc1)=NCc1nnc(C)n1-2 (centres unmarked) [compound 154, 3-(4-((1-(2-(4-((4-(4-chlorophenyl)-3,9-dimethyl-6H-thieno[3,2-f][1,2,4]triazolo[4,3-a][1,4]diazepin-2-yl)ethynyl)-1H-pyrazol-1-yl)ethyl)-1H-imidazol-4-yl)methoxy)-1-oxoisoindolin-2-yl)piperidine-2,6-dione] | > 100 nM | > 100 nM | – | –
9 | Cc1c(C#Cc2ccc(CCCC#Cc3cccc4c3CN(C3CCC(=O)NC3=O)C4=O)nc2)sc2c1C(c1ccc(Cl)cc1)=N[C@@H](C)c1nnc(C)n1-2 (stereo partly drawn) [compound 166, 3-(4-(5-(5-(((S)-4-(4-chlorophenyl)-3,6,9-trimethyl-6H-thieno[3,2-f][1,2,4]triazolo[4,3-a][1,4]diazepin-2-yl)ethynyl)pyridin-2-yl)pent-1-yn-1-yl)-1-oxoisoindolin-2-yl)piperidine-2,6-dione] | 0.6 nM | 0.9 nM | – | –
10 | Cc1ncsc1-c1ccc([C@H](C)NC(=O)[C@@H]2C[C@@H](O)CN2C(=O)[C@@H](NC(=O)COCCOCCn2cc(C#Cc3sc4c(c3C)C(c3ccc(Cl)cc3)=N[C@@H](C)c3nnc(C)n3-4)cn2)C(C)(C)C)cc1 [compound 201, (2S,4R)-1-((S)-2-(2-(2-(2-(4-(((S)-4-(4-chlorophenyl)-3,6,9-trimethyl-6H-thieno[3,2-f][1,2,4]triazolo[4,3-a][1,4]diazepin-2-yl)ethynyl)-1H-pyrazol-1-yl)ethoxy)ethoxy)acetamido)-3,3-dimethylbutanoyl)-4-hydroxy-N-((S)-1-(4-(4-methylthiazol-5-yl)phenyl)ethyl)pyrrolidine-2-carboxamide] | 24.9 nM | 2.1 ± 0.32 nM | – | –
11 | Cc1c(C#Cc2cnn(C[C@H]3CC[C@H](Nc4cccc5c4CN(C4CCC(=O)NC4=O)C5=O)CC3)c2)sc2c1C(c1ccc(Cl)cc1)=N[C@@H](C)c1nnc(C)n1-2 (stereo partly drawn) [compound 171, 3-(4-(((1S,4r)-4-((4-(((S)-4-(4-chlorophenyl)-3,6,9-trimethyl-6H-thieno[3,2-f][1,2,4]triazolo[4,3-a][1,4]diazepin-2-yl)ethynyl)-1H-pyrazol-1-yl)methyl)cyclohexyl)amino)-1-oxoisoindolin-2-yl)piperidine-2,6-dione] | 0.9 nM | 0.6 nM | 1 nM | 0.8 nM
12 | Cc1c(C#Cc2cnn(CCCn3cnc(COc4cccc5c4C(=O)N(C4CCC(=O)NC4=O)C5=O)c3)c2)sc2c1C(c1ccc(Cl)cc1)=NCc1nnc(C)n1-2 (centres unmarked) [compound 155, 4-((1-(3-(4-((4-(4-chlorophenyl)-3,9-dimethyl-6H-thieno[3,2-f][1,2,4]triazolo[4,3-a][1,4]diazepin-2-yl)ethynyl)-1H-pyrazol-1-yl)propyl)-1H-imidazol-4-yl)methoxy)-2-(2,6-dioxopiperidin-3-yl)isoindoline-1,3-dione] | > 100 nM | > 100 nM | – | –
13 | Cc1ncsc1-c1ccc([C@H](C)NC(=O)[C@@H]2COCCN2C(=O)[C@@H](NC(=O)COCCCn2cc(C#Cc3sc4c(c3C)C(c3ccc(Cl)cc3)=N[C@@H](C)c3nnc(C)n3-4)cn2)C(C)(C)C)cc1 [compound 202, (S)-4-((S)-2-(2-(3-(4-(((S)-4-(4-chlorophenyl)-3,6,9-trimethyl-6H-thieno[3,2-f][1,2,4]triazolo[4,3-a][1,4]diazepin-2-yl)ethynyl)-1H-pyrazol-1-yl)propoxy)acetamido)-3,3-dimethylbutanoyl)-N-((S)-1-(4-(4-methylthiazol-5-yl)phenyl)ethyl)morpholine-3-carboxamide] | – | 91.6 nM | – | –
14 | Cc1c(C#Cc2cnn(CCCN3CCC(Nc4cccc5c4CN(C4CCC(=O)NC4=O)C5=O)CC3)c2)sc2c1C(c1ccc(Cl)cc1)=N[C@@H](CC(=O)Nc1ccc(O)cc1)c1nnc(C)n1-2 (stereo partly drawn) [compound 193, 2-((6S)-4-(4-chlorophenyl)-2-((1-(3-(4-((2-(2,6-dioxopiperidin-3-yl)-1-oxoisoindolin-4-yl)amino)piperidin-1-yl)propyl)-1H-pyrazol-4-yl)ethynyl)-3,9-dimethyl-6H-thieno[3,2-f][1,2,4]triazolo[4,3-a][1,4]diazepin-6-yl)-N-(4-hydroxyphenyl)acetamide] | 0.06 nM | 0.03 nM | – | –
15 | Cc1c(C#Cc2cnn(CCCCNc3ccc4c(c3)CN(C3CCC(=O)NC3=O)C4=O)c2)sc2c1C(c1ccc(Cl)cc1)=N[C@@H](C)c1nnc(C)n1-2 (stereo partly drawn) [compound 184, 3-(5-((4-(4-(((S)-4-(4-chlorophenyl)-3,6,9-trimethyl-6H-thieno[3,2-f][1,2,4]triazolo[4,3-a][1,4]diazepin-2-yl)ethynyl)-1H-pyrazol-1-yl)butyl)amino)-1-oxoisoindolin-2-yl)piperidine-2,6-dione] | 0.1 nM | 0.5 nM | – | –
16 | Cc1ncsc1-c1ccc([C@H](C)NC(=O)[C@@H]2C[C@@H](F)CN2C(=O)[C@@H](NC(=O)COCCCn2cc(C#Cc3sc4c(c3C)C(c3ccc(Cl)cc3)=N[C@@H](C)c3nnc(C)n3-4)cn2)C(C)(C)C)cc1 [compound 203] | 37.5 nM | – | – | –
17 | Cc1c(C#Cc2cnn(CCOCCOCCNc3cccc4c3CN(C3CCC(=O)NC3=O)C4=O)c2)sc2c1C(c1ccc(Cl)cc1)=N[C@@H](C)c1nnc(C)n1-2 (stereo partly drawn) [compound 188, 3-(4-((2-(2-(2-(4-(((S)-4-(4-chlorophenyl)-3,6,9-trimethyl-6H-thieno[3,2-f][1,2,4]triazolo[4,3-a][1,4]diazepin-2-yl)ethynyl)-1H-pyrazol-1-yl)ethoxy)ethoxy)ethyl)amino)-1-oxoisoindolin-2-yl)piperidine-2,6-dione] | 1.7 nM | – | – | –

Source: patent publication US10975093B2, “Fused 1,4-diazepines as BET protein degraders” (THE REGENTS OF THE UNIVERSITY OF MICHIGAN, priority 2016, dated 2021)
